test system: human platelets; test: Inhibition of Platelet Aggregation (human platelets stimulated with ADP); type: cell-based; details: in vitro

SMILES | IC50 [µM]
O=C(O)CC1Nc2cc(C(=O)Nc3ccc4c(c3)CNCC4)ccc2CN(CCc2ccccc2)C1=O (racemic) [Example 4, (R,S)-8-[[(1,2,3,4-tetrahydro-7-isoquinolinyl]amino]carbonyl]-2,3,4,5-tetrahydro-3-oxo-4-(2-phenylethyl)-1H-1,4-benzodiazepine-2-acetic acid] | ~75
O=C(O)CC1Nc2ccc(C(=O)Nc3ccc4c(c3)CNCC4)cc2CN(CCc2ccccc2)C1=O (racemic) [Example 7, (R,S)-7-[[(1,2,3,4-tetrahydro-7-isoquinolinyl]amino]carbonyl]-2,3,4,5-tetrahydro-3-oxo-4-(2-phenylethyl)-1H-1,4-benzodiazepine-2-acetic acid] | 0.2 to 11
CN(CCC1CCNCC1)C(=O)c1ccc2c(c1)CC(CCC(=O)O)C(=O)N(CCc1ccccc1)C2 (racemic) [Example 22, (R,S)-2,3,4,5-tetrahydro-3-oxo-2-(2-phenylethyl)-7-[[[2-(4-piperidinyl)ethyl]-methylamino]carbonyl]-1H-2-benzazepine-4-propionic acid] | 0.2 to 11

Next, values leading:

IC50 [µM] | SMILES
0.2 to 11 | O=C(O)CC1Nc2ccc(C(=O)N3CCC(C4CCNCC4)CC3)cc2CN(CCc2ccccc2)C1=O (single isomer, unassigned; (+)) [Example 23, (+)-7-[(4,4'-bipiperidin-1-yl)carbonyl]-2,3,4,5-tetrahydro-3-oxo-4-(phenylethyl)-1H-1,4-benzodiazepine-2-acetic acid]
0.2 to 11 | CN1Cc2cc(C(=O)N3CCC(C4CCNCC4)CC3)ccc2N[C@H](CC(=O)O)C1=O [Example 26, (R)-7-[(4,4'-bipiperidin-1-yl)carbonyl]-2,3,4,5-tetrahydro-4-methyl-3-oxo-1H-1,4-benzodiazepine-2-acetic acid]

Reference: patent US6117866A, “Bicyclic fibrinogen antagonists” (SmithKline Beecham Corporation, priority 1996, dated 2000)
